Assay results: ChEMBL document CHEMBL1130929, “Conformationally restricted analogues of nicotine and anabasine” (Bioorg Med Chem Lett, 1998)

Tests used:
[1] = In vitro ability to displace tritiated nicotine from rat brain binding sites, and calcium flux (c.f)
[2] = target: T1, Neuronal acetylcholine receptor; alpha4/beta2 (Homo sapiens, UniProt P17787+P43681); assay: Compound was evaluated for agonist activity against activated human recombinant Nicotinic acetylcholine receptor alpha4-beta2 in Xenopus Oocytes; type: functional, cell-based
[3] = target: T1, Neuronal acetylcholine receptor; alpha4/beta2; assay: Compound was evaluated for agonist activity against activated human recombinant aNicotinic acetylcholine receptor alpha4-beta2 in Xenopus Oocytes; type: functional, cell-based
[4] = In vitro agonist activity against activated human recombinant alpha3-beta4 neuronal acetylcholine receptors (nAChR) in Xenopus Oocytes; type: functional, cell-based
[5] = target: T2, Neuronal acetylcholine receptor; alpha2/beta4 (Homo sapiens, UniProt P30926+Q15822); assay: (§1) Compound was evaluated for agonist activity against activated human recombinant Nicotinic acetylcholine receptor alpha2-beta4 in Xenopus Oocytes; type: functional, cell-based
Rattus norvegicus [6] = species on record: Rattus norvegicus; assay: Compound was tested for its ability to release dopamine from rat striatal slices at 300 uM; type: functional
[7] = In vitro ability to displace tritiated nicotine from rat brain binding sites
[8] = target: T3, Neuronal acetylcholine receptor; alpha4/beta4 (Homo sapiens, UniProt P30926+P43681); assay: Compound was evaluated for its agonist activity against activated human recombinant Nicotinic acetylcholine receptor alpha4-beta4 in Xenopus Oocytes; type: functional, cell-based
[9] = target: T2, Neuronal acetylcholine receptor; alpha2/beta4; assay: as §1; type: functional, cell-based; remark: listed apart in the source
[10] = target: T3, Neuronal acetylcholine receptor; alpha4/beta4; assay: Compound was evaluated for agonist activity against activated human recombinant Nicotinic acetylcholine receptor alpha4-beta4 in Xenopus Oocytes; type: functional, cell-based
[11] = target: Neuronal acetylcholine receptor; alpha3/beta4 (Homo sapiens) (UniProt P30926+P32297); assay: In vitro agonist activity against activated human recombinant Nicotinic acetylcholine receptor alpha3-beta4 in Xenopus Oocytes; type: functional, cell-based
Rattus norvegicus [12] = species on record: Rattus norvegicus; assay: In vitro ability to release dopamine from rat striatal slices; type: functional

T1 sequence (P17787 whole entry): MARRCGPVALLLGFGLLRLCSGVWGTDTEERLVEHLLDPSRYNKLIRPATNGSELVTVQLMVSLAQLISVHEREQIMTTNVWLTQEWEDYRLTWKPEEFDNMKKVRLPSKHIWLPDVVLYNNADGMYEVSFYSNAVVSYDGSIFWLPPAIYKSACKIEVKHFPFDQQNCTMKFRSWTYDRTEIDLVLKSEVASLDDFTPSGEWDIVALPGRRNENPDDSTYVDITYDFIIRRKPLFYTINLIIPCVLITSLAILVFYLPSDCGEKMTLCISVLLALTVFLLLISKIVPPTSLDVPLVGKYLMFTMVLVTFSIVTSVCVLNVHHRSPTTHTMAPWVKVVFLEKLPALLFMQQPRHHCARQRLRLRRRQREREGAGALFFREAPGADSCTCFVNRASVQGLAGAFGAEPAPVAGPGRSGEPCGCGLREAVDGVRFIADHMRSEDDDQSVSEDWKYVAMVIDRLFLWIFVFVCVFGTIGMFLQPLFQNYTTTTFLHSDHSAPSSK
T1 sequence (P43681 whole entry): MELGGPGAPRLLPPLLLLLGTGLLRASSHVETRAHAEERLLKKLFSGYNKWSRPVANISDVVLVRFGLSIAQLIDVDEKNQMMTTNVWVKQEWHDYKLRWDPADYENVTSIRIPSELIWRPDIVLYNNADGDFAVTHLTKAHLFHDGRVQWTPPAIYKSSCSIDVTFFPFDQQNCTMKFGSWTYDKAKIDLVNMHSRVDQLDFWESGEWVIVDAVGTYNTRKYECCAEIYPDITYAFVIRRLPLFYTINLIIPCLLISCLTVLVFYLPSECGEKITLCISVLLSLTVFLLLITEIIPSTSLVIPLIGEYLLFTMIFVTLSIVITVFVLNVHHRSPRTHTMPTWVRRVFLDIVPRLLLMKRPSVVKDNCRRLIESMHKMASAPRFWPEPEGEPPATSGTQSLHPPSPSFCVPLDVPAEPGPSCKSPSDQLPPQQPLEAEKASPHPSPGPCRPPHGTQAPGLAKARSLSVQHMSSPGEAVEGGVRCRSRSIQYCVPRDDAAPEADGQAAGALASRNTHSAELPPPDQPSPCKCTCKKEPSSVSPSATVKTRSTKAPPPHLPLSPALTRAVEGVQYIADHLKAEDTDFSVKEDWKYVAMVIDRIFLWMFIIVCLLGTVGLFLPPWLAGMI
T3 sequence (P30926 whole entry): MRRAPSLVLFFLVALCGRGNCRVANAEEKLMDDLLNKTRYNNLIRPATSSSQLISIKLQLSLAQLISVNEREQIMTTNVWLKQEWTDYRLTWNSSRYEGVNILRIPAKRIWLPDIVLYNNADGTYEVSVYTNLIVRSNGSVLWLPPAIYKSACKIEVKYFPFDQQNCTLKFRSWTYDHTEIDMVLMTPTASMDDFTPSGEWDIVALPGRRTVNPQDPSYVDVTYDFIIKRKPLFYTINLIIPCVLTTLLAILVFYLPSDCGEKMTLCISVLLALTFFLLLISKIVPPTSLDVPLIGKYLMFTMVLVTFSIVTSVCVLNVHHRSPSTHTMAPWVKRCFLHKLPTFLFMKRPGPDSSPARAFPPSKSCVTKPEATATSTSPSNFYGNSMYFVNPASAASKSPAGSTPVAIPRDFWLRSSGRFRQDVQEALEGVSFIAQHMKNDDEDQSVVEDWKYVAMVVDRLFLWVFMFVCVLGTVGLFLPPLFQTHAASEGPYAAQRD
T3 sequence (P43681 whole entry): as the sequence (P43681 whole entry) above
T2 sequence (P30926 whole entry): as the sequence (P30926 whole entry) above
T2 sequence (Q15822 whole entry): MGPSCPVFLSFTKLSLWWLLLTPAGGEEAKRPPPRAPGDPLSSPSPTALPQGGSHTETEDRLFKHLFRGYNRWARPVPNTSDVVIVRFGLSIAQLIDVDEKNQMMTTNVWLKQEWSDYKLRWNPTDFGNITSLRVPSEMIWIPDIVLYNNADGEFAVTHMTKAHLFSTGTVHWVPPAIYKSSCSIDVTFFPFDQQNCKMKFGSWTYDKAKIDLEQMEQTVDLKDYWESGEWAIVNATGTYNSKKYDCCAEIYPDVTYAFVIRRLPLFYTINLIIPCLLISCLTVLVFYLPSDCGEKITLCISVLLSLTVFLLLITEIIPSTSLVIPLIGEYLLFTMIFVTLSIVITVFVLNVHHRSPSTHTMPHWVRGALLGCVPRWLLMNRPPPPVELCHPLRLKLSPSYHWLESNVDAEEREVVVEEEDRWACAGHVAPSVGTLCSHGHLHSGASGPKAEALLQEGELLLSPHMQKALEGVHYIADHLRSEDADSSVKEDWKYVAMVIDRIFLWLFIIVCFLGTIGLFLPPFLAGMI

`CN1CCC[C@H]1c1cccnc1` [NICOTINE] showed an IC50 [1] of 0.004 µM.
Work on `COc1cc2c(cn1)C1NCCC1CC2` (stereo not drawn) yielded an Efficacy [2] of 8%, an EC50 [3] of 3 µM and an EC50 [4] of 81 µM. For the same compound, the EC50 [5] was 87 µM, the Efficacy (Rattus norvegicus [6]) was 73 and the IC50 [7] was 1.9 µM. It also gave an EC50 [8] of 32 µM, an Efficacy [9] of 22% and an Efficacy [10] of 44%. The Efficacy [11] was 5%.
For `c1cc2c(cn1)C1NCCC1CC2` (stereo not drawn), the IC50 [1] was 0.51 µM and the Efficacy (Rattus norvegicus [12]) was 56%.
